Test results: patent US20180256673A1, “METHODS FOR TREATING FUNGAL INFECTIONS” (priority 2015, published 2018)
≈ marks a conversion by molar mass, not a printed value. Where “and” joins values, the source holds several entries; their conditions need not be identical. Equal values may be shown once. Read-outs that look alike come from different tables or passages of the source. Starred links: 1 amine or outer side, 2 acyl side, 3 side chain; linkers in the order of their positions; H or OH if unused. Positions of bridges follow the written chain, without caps; N, C: chain ends. Non-standard residues stand in square brackets, D forms with d. Residues, ends and D or L forms follow the SMILES beside them. *: point of attachment. pTerphenylCO(4''-OnC5H11) = CCCCCOc1ccc(-c2ccc(-c3ccc(C(=O)*)cc3)cc2)cc1; Orn(4R-OH,5R-OH) = O=C([C@H](C[C@@H](O)[C@@H](O)N[*:3])N[*:1])[*:2]; hTyr(3S-OH,4S-OH) = N[C@H](C(=O)O)[C@H](O)[C@@H](O)c1ccc(O)cc1; Pro(3S-OH,4S-Me) = C[C@H]1CN[C@H](C(=O)O)[C@H]1O; Hyp = O=C(O)[C@@H]1C[C@@H](O)CN1

Experiments:
C. parapsilosis CP02 = test: microbe, parasite or virus in culture; format: cell-based, Candida parapsilosis; details: for MIC: Lodderomyces parapsilosis
Candida glabrata = test: microbe, parasite or virus in culture; format: cell-based
C. albicans NRRL Y-477 [1] = test: Broth microdilution MIC (CLSI), Examples 3 and 4; details: Candida albicans
Experimental: Antifungal susceptibility testing. […] MIC assays were performed in triplicate.

[2] = system: C. glabrata ATCC 90030, ATCC 2001; test: microbe, parasite or virus in culture; format: cell-based, Candida glabrata; details: for MIC fold-shift: WT to P20; for MIC: Nakaseomyces glabratus
C. krusei ATCC 6258 [3] = format: cell-based, Candida krusei
Experimental: Spontaneous mutant selection. […] Three individual colonies from each strain were used to start cultures in RPMI. […] One milliliter aliquots were spread onto SDA plates containing drug with sterile glass beads. Starting viable count was enumerated by triplicate plating of serial dilutions of the starting inoculum. […] Glycerol stocks of putative mutant colonies were stored at −80° C. […] Spontaneous mutation frequencies were calculated by dividing the number of resistant colonies on a given plate by the starting inoculum plated. A subset of mutants (weighted heavily towards those selected with CMP1) were then evaluated by MIC and sequencing of FKS gene hot spot regions.

[4] = system: C. glabrata vaginal isolates; test: Susceptibility testing of VVC clinical isolates at pH 7 and 4 (CLSI M27-A3); format: cell-based, Candida glabrata; details: Nakaseomyces glabratus
Candida parapsilosis = test: Broth microdilution of invasive fungal isolates (CLSI M27-A3/M38-A2); format: cell-based
C. krusei ATCC 6258 [5] = test: Broth microdilution MIC (CLSI), Examples 3 and 4; details: Pichia kudriavzevii, ATCC6258, 24 h, read-out: Broth MIC
Experimental: Antifungal susceptibility testing. Candida strains were cultured aerobically at 35° C. on SDA plates or in RPMI 1640 broth (pH 7.0). […] MIC assays were performed in triplicate.

C. albicans NRRL Y-477 [6] = test: microbe, parasite or virus in culture; format: cell-based, Candida albicans; details: for MIC: Candida albicans

Q: Which MIC fold-shift (C. parapsilosis CP02; CP02, WT to P20) does the source give for `CCCCCOc1ccc(-c2ccc(-c3ccc(C(=O)N[C@H]4C[C@@H](O)[C@@H](O)NC(=O)[C@@H]5[C@@H](O)[C@@H](C)CN5C(=O)[C@H]([C@@H](C)O)NC(=O)[C@H]([C@H](O)[C@@H](O)c5ccc(O)cc5)NC(=O)[C@@H]5C[C@@H](O)CN5C(=O)[C@H]([C@@H](C)O)NC4=O)cc3)cc2)cc1` [ANID, anidulafungin] ({pTerphenylCO(4''-OnC5H11)}-[Orn(4R-OH,5R-OH)]T[Hyp][hTyr(3S-OH,4S-OH)]T[Pro(3S-OH,4S-Me)]; lactam 1-C) here?
A: The MIC fold-shift was 1.

Q: And the MIC (C. parapsilosis CP02; CP02, CP02 P20-1, selecting drug ANID)?
A: Its MIC is 4 µg/mL (≈ 3.51 µM).

Q: And the MIC (C. parapsilosis CP02; CP02, CP02 P20-1, selecting drug CAS)?
A: Its MIC is 4 µg/mL (≈ 3.51 µM).

Q: And the MIC (C. parapsilosis CP02; CP02, CP02 P20-1, selecting drug CMP1)?
A: The MIC was 8 µg/mL (≈ 7.02 µM).

Q: And the MIC (C. parapsilosis CP02; CP02, read-out: MIC P20, CP02, total population after 20 passages with the selecting drug, MIC of selecting drug)?
A: Its MIC is 4 µg/mL.

Q: And the “Cumulative % of isolates inhibited at MIC 0.015 μg/mL” value (Candida glabrata)?
A: The value was “(1.0) %”.

Q: And the “Cumulative % of isolates inhibited at MIC 0.03 μg/mL” value (Candida glabrata)?
A: The value was “(12.0) %”.

Q: What about the “Cumulative % of isolates inhibited at MIC 0.06 μg/mL” value (Candida glabrata) of the same compound?
A: The value was “(74.0) %”.

Q: What about the “Cumulative % of isolates inhibited at MIC 0.12 μg/mL” value (Candida glabrata) of the same compound?
A: Its value is “(95.0) %”.

Q: What about the “Cumulative % of isolates inhibited at MIC 0.25 μg/mL” value (Candida glabrata) of the same compound?
A: The value was “(95.0) %”.

Q: And the “Cumulative % of isolates inhibited at MIC 0.5 μg/mL” value (Candida glabrata)?
A: The value was “(95.0) %”.

Q: And the “Cumulative % of isolates inhibited at MIC 1 μg/mL” value (Candida glabrata)?
A: The value was “(95.0) %”.

Q: And the “Cumulative % of isolates inhibited at MIC 2 μg/mL” value (Candida glabrata)?
A: Its value is “(98.0) %”.

Q: What about the “Cumulative % of isolates inhibited at MIC 4 μg/mL” value (Candida glabrata) of the same compound?
A: The value was “(100.0) %”.

Q: What about the “Cumulative % of isolates inhibited at MIC ≤0.008 μg/mL” value (Candida glabrata) of the same compound?
A: Its value is “(1.0) %”.

Q: What about the “Number of isolates inhibited at MIC 0.015 μg/mL” value (Candida glabrata) of the same compound?
A: Its value is 0.

Q: And the “Number of isolates inhibited at MIC 0.03 μg/mL” value (Candida glabrata)?
A: Its value is 11.

Q: And the “Number of isolates inhibited at MIC 0.06 μg/mL” value (Candida glabrata)?
A: The value was 62.

Q: What about the “Number of isolates inhibited at MIC 0.12 μg/mL” value (Candida glabrata) of the same compound?
A: The value was 21.

Q: What about the “Number of isolates inhibited at MIC 0.25 μg/mL” value (Candida glabrata) of the same compound?
A: The value was 0.

Q: And the “Number of isolates inhibited at MIC 0.5 μg/mL” value (Candida glabrata)?
A: The value was 0.

Q: And the “Number of isolates inhibited at MIC 1 μg/mL” value (Candida glabrata)?
A: The value was 0.

Q: What about the “Number of isolates inhibited at MIC 2 μg/mL” value (Candida glabrata) of the same compound?
A: Its value is 3.

Q: What about the “Number of isolates inhibited at MIC 4 μg/mL” value (Candida glabrata) of the same compound?
A: Its value is 2.

Q: And the “Number of isolates inhibited at MIC ≤0.008 μg/mL” value (Candida glabrata)?
A: The value was 1.

Q: And the MIC50 (Candida glabrata; Nakaseomyces glabratus, read-out: MIC50)?
A: The MIC50 was 0.06 µg/mL (≈ 0.0526 µM).

Q: And the MIC90 (Candida glabrata; Nakaseomyces glabratus, read-out: MIC90)?
A: The MIC90 was 0.12 µg/mL (≈ 0.105 µM).

Q: What about the MIC (Candida glabrata; Nakaseomyces glabratus, read-out: MIC according to CLSI method) of the same compound?
A: Its MIC is 2 µg/mL (≈ 1.75 µM).

Q: What about the MIC (Candida glabrata; Nakaseomyces glabratus, read-out: MIC results) of the same compound?
A: Its MIC is 2 to 4 µg/mL (≈ 1.75 to 3.51 µM).

Q: And the “MIC according to CLSI method” value (Candida glabrata; listed as ANF)?
A: The value was 4 µg/mL (≈ 3.51 µM).

Q: And the MIC (C. albicans NRRL Y-477 [1]; NRRLY477)?
A: Its MIC is 0.25 µg/mL (≈ 0.219 µM).

Q: What about the MIC (C. albicans NRRL Y-477 [1]; NRRLY477, 24 h, read-out: Broth MIC) of the same compound?
A: Its MIC is 0.015 µg/mL (≈ 0.0132 µM).

Q: And the MIC fold-shift ([2]; ATCC 2001)?
A: The MIC fold-shift was 64.

Q: And the MIC fold-shift ([2]; ATCC 90030)?
A: The MIC fold-shift was 64.

Q: And the MIC ([2]; 48 h, ATCC 90030 P20-1, selecting drug ANID, Fks2 HS1 D666I, 48 h read)?
A: Its MIC is 4 µg/mL (≈ 3.51 µM).

Q: And the MIC ([2]; 48 h, ATCC 90030 P20-1, selecting drug CAS, Fks2 HS1 F659I D666Y, 48 h read)?
A: Its MIC is 8 µg/mL (≈ 7.02 µM).

Q: And the MIC ([2]; ATCC 2001 P20-2, selecting drug ANID, Fks1 HS1 D632Y)?
A: The MIC was 4 µg/mL (≈ 3.51 µM).

Q: And the MIC ([2]; ATCC 2001 P20-2, selecting drug CAS)?
A: Its MIC is 2 µg/mL (≈ 1.75 µM).

Q: What about the MIC ([2]; ATCC 2001 P20-2, selecting drug CMP1) of the same compound?
A: The MIC was 1 µg/mL (≈ 0.877 µM).

Q: What about the MIC ([2]; ATCC 90030 P20-2, selecting drug CMP1) of the same compound?
A: The MIC was 1 µg/mL (≈ 0.877 µM).

Q: What about the MIC ([2]; read-out: MIC P20, ATCC 2001, total population after 20 passages with the selecting drug, MIC of selecting drug) of the same compound?
A: Its MIC is 4 µg/mL.

Q: And the MIC ([2]; read-out: MIC P20, ATCC 90030, total population after 20 passages with the selecting drug, MIC of selecting drug)?
A: The MIC was 4 µg/mL.

Q: And the Median mutation frequency (C. krusei ATCC 6258 [3])?
A: Its Median mutation frequency is under 3.38E−09.

Q: And the Plate concentration (C. krusei ATCC 6258 [3]; SDA, minimum concentration to cleanly inhibit growth)?
A: Its Plate concentration is 0.25 µg/mL.

Q: What about the “Freq. (replicate mutation frequency)” value (C. krusei ATCC 6258 [3]; replicate plates 1-3) of the same compound?
A: Its value is <3.38E−09 (2×) and <3.51E−09.

Q: What about the MIC90 ([4]; 24 h, pH 4) of the same compound?
A: The MIC90 was 0.125 µg/mL (≈ 0.11 µM).

Q: What about the MIC90 ([4]; 24 h, pH 7) of the same compound?
A: Its MIC90 is 0.03 µg/mL (≈ 0.0263 µM).

Q: And the MIC90 ([4]; 48 h, pH 4)?
A: Its MIC90 is 0.25 µg/mL (≈ 0.219 µM).

Q: What about the MIC90 ([4]; 48 h, pH 7) of the same compound?
A: The MIC90 was 0.06 µg/mL (≈ 0.0526 µM).

Q: And the “Cumulative % of isolates inhibited at MIC 0.5 μg/mL” value (Candida parapsilosis; 92 isolates)?
A: The value was “(4.3) %”.

Q: And the “Cumulative % of isolates inhibited at MIC 1 μg/mL” value (Candida parapsilosis; 92 isolates)?
A: The value was “(34.8) %”.

Q: What about the “Cumulative % of isolates inhibited at MIC 2 μg/mL” value (Candida parapsilosis; 92 isolates) of the same compound?
A: Its value is “(82.6) %”.

Q: And the “Cumulative % of isolates inhibited at MIC 4 μg/mL” value (Candida parapsilosis; 92 isolates)?
A: The value was “(100.0) %”.

Q: What about the “Number of isolates inhibited at MIC 0.5 μg/mL” value (Candida parapsilosis; 92 isolates) of the same compound?
A: The value was 4.

Q: And the “Number of isolates inhibited at MIC 1 μg/mL” value (Candida parapsilosis; 92 isolates)?
A: Its value is 28.

Q: What about the “Number of isolates inhibited at MIC 2 μg/mL” value (Candida parapsilosis; 92 isolates) of the same compound?
A: The value was 44.

Q: And the “Number of isolates inhibited at MIC 4 μg/mL” value (Candida parapsilosis; 92 isolates)?
A: The value was 16.

Q: And the MIC50 (Candida parapsilosis; Lodderomyces parapsilosis)?
A: The MIC50 was 2 µg/mL (≈ 1.75 µM).

Q: What about the MIC90 (Candida parapsilosis; Lodderomyces parapsilosis) of the same compound?
A: Its MIC90 is 4 µg/mL (≈ 3.51 µM).

Q: And the MIC (C. krusei ATCC 6258 [5])?
A: Its MIC is 0.06 µg/mL (≈ 0.0526 µM).

Q: What about the MIC (C. albicans NRRL Y-477 [6]; NRRLY477, 48 h, NRRL Y-477 P20-1, selecting drug ANID, Fks1 HS1 S645Y, 48 h read) of the same compound?
A: Its MIC is 4 µg/mL (≈ 3.51 µM).

Q: And the MIC (C. albicans NRRL Y-477 [6]; NRRLY477, 48 h, NRRL Y-477 P20-1, selecting drug CMP1, 48 h read)?
A: The MIC was 0.125 µg/mL (≈ 0.11 µM).

Q: And the MIC (C. albicans NRRL Y-477 [6]; NRRLY477, NRRL Y-477 P20-1, selecting drug CAS)?
A: Its MIC is 0.015 µg/mL (≈ 0.0132 µM).

Q: What about the MIC (C. albicans NRRL Y-477 [6]; NRRLY477, read-out: MIC P20, NRRL Y-477, total population after 20 passages with the selecting drug, MIC of selecting drug) of the same compound?
A: The MIC was 4 µg/mL.

Q: What about the MIC fold-shift (C. albicans NRRL Y-477 [6]; NRRL Y-477, WT to P20) of the same compound?
A: Its MIC fold-shift is 256.
